Key:
[1] = test system: yellow broilers; settings: 1-day-old yellow broilers, basal ration + 750 ppm, 20 days; for FCR (feed conversion ratio): ADFI/ADG
Description: The experiment was conducted with single-factor randomized design. 720 1-day-old yellow broilers with a similar average body weight of 50 g, was randomly divided into 16 groups, each group consisting of 3 replicates and equal numbers of males and females, and each replicate consisting of 15 yellow broilers. The chicken house and tools were sterilized before the experiment. During the experiment, the broilers were kept in separate regions in the same chicken house under the same feeding and management conditions. Basal ration mainly consisted of corn and soybean meal. During the entire process, each treatment group was not given other antioxidants or growth promoters. […] The experiment lasted for 20 days. The broilers were given ad libitum access to food and water, and feeds were provided twice every day. At the day when the broilers were 21-day old (withdrawing feed for 12 hours, without withdrawing water), taking each replicate as one unit, body weights of the broilers were measured for calculating average daily feed intake (ADFI, g/d per broiler), average daily weigh gain (ADG, g/d per broiler), and feed conversion ratio (FCR). Feed conversion ratio (FCR)=Average daily feed intake/Average daily weight gain

[2] = test system: Grass carps; settings: basal ration + 500 ppm, 8 weeks; for Feed coefficient: 580/(final−initial weight); for Weight gain rate: (final−initial)/initial×100; for Average final weight: restricted feeding
Description: Grass carps were used in this experiment, which is conducted in an aquaculture region in the Guangzhou Insighter experiment yard. Healthy grass carps with the same size were reared in large netcages for 4 weeks before the experiment. The grass carps were kept in small floating netcages during the experiment. The small netcages and netcages for acclimatization were both placed in a 3500 m^2 pond in the experiment yard. […] In the experiment, 520 grass carps, which had been starved for 1 day, were randomly divided into 13 groups, each group consisting of 4 replicates, and each replicate consisting of 10 grass carps. The grass carps were weighed, taking each replicate as a whole. Then they were randomly released to 52 netcages in which they were fed with different feeds. […] Feed restriction had been adopted during the experiment, and the feeding amount was adjusted once a week. The treatment and control groups were fed twice (7:30 and 15:30) every day, with their feeding levels (based on initial body weights) being identical to be a total amount of 580 g. The experiment lasted for 8 weeks.
Calculation: Weight gain rate (%)=(Average final weight−Average initial weight)/Average initial weight×100 Feed coefficient=580/(Average final weight−Average initial weight)

[3] = test system: Duroc×Landrace×Yorkshire cross-bred bacon-type pigs; assay: Effect of the glutamine derivatives on the production performance of hogs (piglets), 28-day feeding; type: in vivo; settings: 65-day-old pigs, basal ration + 800 ppm, 28 days; for FCR (feed conversion ratio): ADFI/ADG
Excerpt: 480 65-day-old Duroc×Landrace×Yorkshire cross-bred bacon-type pigs with similar body weight, were randomly divided into 16 groups, with 3 replications per group and 10 pigs (half of male and female) per replication. The pig pen and tools were sterilized before the experiment. […] The experiment lasted for 28 days.

| SMILES | ADFI (average daily feed intake) [1] [g/d per broiler] | ADG (average daily weight gain) [1] [g/d per broiler] | FCR (feed conversion ratio) [1] | Feed coefficient [2] | Weight gain rate [2] [%] | Average final weight [2] [g] | ADFI (average daily feed intake) [3] [g/d per piglet] | ADG (average daily weight gain) [3] [g/d per piglet] | FCR (feed conversion ratio) [3] |
| --- | --- | --- | --- | --- | --- | --- | --- | --- | --- |
| CCNC(=O)CCC(NC(=O)c1ccccc1)C(=O)O (stereo not drawn) [Compound 1] | 32.8 | 14.8 | 2.22 | 1.79 | 72.41 | 678 | 1657 | 661 | 2.506 |
| CCCCNC(=O)CCC(NC(=O)c1ccccc1)C(=O)O (stereo not drawn) [Compound 2] | 31.5 | 14.1 | 2.23 | 1.78 | 70.47 | 690 | 1648 | 651 | 2.531 |
| O=C(NC(CCC(=O)N1CCCCC1)C(=O)O)c1ccccc1 (stereo not drawn) [Compound 5] | 30.9 | 13.7 | 2.26 | 1.80 | 71.27 | 678 | 1633 | 651 | 2.510 |
| CCNC(=O)CCC(NC(=O)c1ccccc1)C(=O)OCC (stereo not drawn) [Compound 6] | 31.2 | 14.2 | 2.20 | 1.77 | 72.84 | 681 | 1615 | 646 | 2.499 |
| CCNC(=O)CCC(NC(=O)c1ccccc1)C(=O)[O-].CCNC(=O)CCC(NC(=O)c1ccccc1)C(=O)[O-].[Zn+2] (stereo not drawn) [Compound 7] | 31.7 | 14.5 | 2.18 |  |  |  | 1674 | 672 | 2.491 |
| CCNC(=O)CCC(NC(=O)c1ccccc1)C(=O)[O-].CCNC(=O)CCC(NC(=O)c1ccccc1)C(=O)[O-].[Cu+2] (stereo not drawn) [Compound 8] | 30.6 | 14.2 | 2.16 |  |  |  | 1670 | 671 | 2.488 |
| CCNC(=O)CCC(NC(=O)c1ccccc1)C(=O)[O-].CCNC(=O)CCC(NC(=O)c1ccccc1)C(=O)[O-].[Ca+2] (stereo not drawn) [Compound 9] | 32.5 | 14.8 | 2.20 |  |  |  | 1636 | 652 | 2.511 |
| CCNC(=O)CCC(NC(=O)c1ccc(Cl)cc1)C(=O)O (stereo not drawn) [Compound 10] | 32.2 | 14.5 | 2.22 | 1.81 | 72.34 | 669 | 1607 | 657 | 2.508 |
| CCNC(=O)CCC(NC(=O)c1ccc(C)cc1)C(=O)O (stereo not drawn) [Compound 11] | 30.8 | 13.8 | 2.24 | 1.80 | 70.73 | 681 | 1592 | 634 | 2.512 |
| CCNC(=O)CCC(NC(=O)c1ccc(O)cc1)C(=O)O (stereo not drawn) [Compound 12] | 31.6 | 14.0 | 2.26 | 1.79 | 69.56 | 692 | 1599 | 633 | 2.528 |
| CCCC(=O)NC(CCC(=O)NCC)C(=O)O (stereo not drawn) [Compound 13] | 31.3 | 13.7 | 2.28 | 1.83 | 70.42 | 687 | 1609 | 627 | 2.566 |
| CCCCCCCCCC(=O)NC(CCC(=O)NCC)C(=O)O (stereo not drawn) [Compound 14] | 31.8 | 14.0 | 2.27 | 1.81 | 70.70 | 678 | 1582 | 621 | 2.548 |
| CCCCCCCCCCCCCC(=O)NC(CCC(=O)NCC)C(=O)O (stereo not drawn) [Compound 15] | 32.4 | 14.6 | 2.22 | 1.80 | 70.73 | 681 | 1670 | 650 | 2.571 |

Source: patent publication US11964929B2, “Application of glutamine derivative in preparation of animal feed additive” (WISORIG TE[…]. LIMITED, priority 2018, dated 2024)
